Laboratory results as given in patent US20170333390A1, “PHYTOCHEMICAL COMPOSITIONS INCLUDING SESAMIN FOR ANTI-INFLAMMATORY, ANTI-CYTOKINE STORM, AND OTHER USES” (CHIANG MAI UNIVERSITY, priority 2009, published 2017).

Experiments:
[1] = test system: cartilage tissue cultures exposed to IL-1 (ECM degradation, HA release); assay: HA release from IL-1 exposed cartilage tissue cultures (ELISA); type: cell-based; conditions: relative to control culture
Procedure: Experiments were conducted to evaluate the anti-inflammatory effects of combinations of particular phytochemical compositions provided by the present disclosure with known substances, compositions, or drugs that are associated with an anti-inflammatory effect and/or an anti-degenerative or tissue integrity preservation effect in connective tissue. In the context of the present disclosure, the term “connective tissue” encompasses connective tissue proper (e.g., dense or fibrous connective tissue), as well as specialized connective tissue such as cartilage or bone. More specifically, experiments were conducted to evaluate the anti-inflammatory, anti-degenerative, and/or structural preservation effects of a combination of particular phytochemical compositions provided by the present disclosure with glucosamine sulfate. In addition, the experiments compared the anti-inflammatory/anti-degenerative effects of the combination of particular sesamin or sesamin-based phytochemical compositions provided by the present disclosure plus glucosamine sulfate, versus the anti-inflammatory/anti-degenerative effects of glucosamine sulfate alone.
Hyaluronic acid (HA) is an important component of the extracellular matrix (ECM), as well as a major component of synovial fluid. HA is present in articular cartilage, and contributes to cartilage resilience. It is known that IL-1 stimulates the synthesis and activity of matrix metalloproteinases and other enzymes that are associated with cartilage degradation as well as rheumatoid arthritis and osteoarthritis. A set of experimental cartilage tissue cultures were prepared using cartilage tissue samples containing HA within their ECMs. As further detailed below, the experimental cartilage tissue cultures selectively incorporated glucosamine sulfate alone; sesamin alone; or a combination of glucosamine sulfate and sesamin. Additionally, a control cartilage tissue culture remained unexposed to either of sesamin or glucosamine sulfate.
ECM degradation was induced in the experimental and control cartilage tissue cultures by exposing the cultures to IL-1. A measure or estimate of a cartilage tissue anti-degenerative effect was defined in accordance with an amount of HA that an experimental cartilage tissue culture released into the tissue culture medium relative to a reference or baseline amount of HA that was released into the tissue culture medium by the control cartilage tissue culture. More particularly, a percentage reduction in the amount of HA released into the tissue culture medium by a given experimental cartilage tissue culture relative to the amount of HA released into the tissue culture medium by the control cartilage tissue culture, indicated below as “Percentage (%) HA Reduction”, conveys or indicates the magnitude of an anti-degenerative or structural preservation effect provided by the experimental cartilage tissue culture under consideration. A corresponding measure or estimate of percentage (%) HA retention by cartilage tissue can also be defined based upon the experimental results. The amount or level of HA present in a given tissue culture medium was detected using ELISA, in a manner that can be understood by one of ordinary skill in the art.

[2] = test system: influenza A (H1N1) virus-infected egg cells; assay: Quantity of IL-1 released by influenza A (H1N1) virus-infected egg cells; type: cell-based; conditions: for quantity of IL-1 released: 24 hours, FIG. 5; for percentage of quantity of human IL-1 released relative to quantity of isolated egg cells (diluted 1:50): uninfected culture 1 = 100%, FIG. 6
Procedure: Experiments were conducted to evaluate the effects of particular phytochemical compositions provided by the present disclosure on quantity of IL-1 released by virus-infected cells. Virus-infected cells used for the experiments described in this example are influenza A (H1N1) virus-infected cells. More specifically, the virus-infected cells used for the experiments described in this example are influenza A (H1N1) virus-infected egg cells. The influenza A (H1N1) virus can be isolated from patients infected with the influenza A (H1N1) using standard techniques known to a person of ordinary skill in the art. In addition, isolation of cells (e.g., egg cells), and the infection of cells (e.g., isolated egg cells) can be performed using standard techniques or method known to a person of ordinary skill in the art. It is understood by a person having ordinary skill in the art that the influenza A (H1N1) virus-infected egg cells may be substituted for other viral-infected cells, or other cells found within the body, for instance, cells that that are involved in inflammatory responses within the body.
Six cultures of cells, i.e., culture 1 to culture 6, were prepared. The contents of each of cultures 1 to culture 6 are as follows: • (i) Culture 1: Control culture 1. Includes a predetermined volume of a sample of isolated egg cells that has been diluted in a ratio of 1:50; • (ii) Culture 2: Control culture 2. Includes the predetermined volume of the sample of isolated egg cells similar to that of culture 1 that have been infected with the influenza A (H1N1) virus diluted at a ratio of 1:7812500; • (iii) Culture 3: Control culture 3. Includes the predetermined volume of the sample of isolated egg cells similar to that of culture 1 and a volume of DMSO that has been infected with the influenza A (H1N1) virus diluted at a ratio of 1:7812500; • (iv) Culture 4: Includes the predetermined volume of the sample of isolated egg cells that have been infected with the influenza A (H1N1) virus similar to that of culture 2, and a volume of phytochemical composition providing sesamin at a concentration of 0.5 ug/ml; • (v) Culture 5: Includes the predetermined volume of the sample of isolated egg cells that have been infected with the influenza A (H1N1) virus similar to that of culture 2, and a volume of phytochemical composition providing sesamin at a concentration of 1.0 ug/ml; and • (vi) Culture 6: Includes the predetermined volume of the sample of isolated egg cells that have been infected with the influenza A (H1N1) virus similar to that of culture 2, and a volume of phytochemical composition providing sesamin at a concentration of 10.0 ug/ml.
In the experiments of example six, each of cultures 1 to 6 is made up to a final volume of approximately 200 μl in a well of a standard 96 well plate. It will be understood by a person of ordinary skill in the art that an alternative final volume (e.g., 100 μl) may also be used. The number or concentration of isolated egg cells used for each culture is approximately equal. For instance, the number of isolated egg cells used for each culture is approximately 2×10^5 (i.e., 200,000). It will be understood by a person of ordinary skill in the art that the number or concentration of isolated egg cells used for each of cultures 1 to 6 can be adjusted as required by varying the degree of dilution of the cultures (e.g., by increasing total volume of the culture by adding medium).
Each of cultures 1 to 6 was incubated at the same physical conditions for an equal length of time. More specifically, each culture was incubated at a temperature of 37° C. with 5% of carbon dioxide for 24 hours. The amount of IL-1 released from the isolated egg cells of each of cultures 1 to 6 was measured or determined using methods or techniques known to a person having ordinary skill in the relevant art.

c1cc2c(cc1[C@H]1OC[C@H]3[C@@H]1CO[C@@H]3c1ccc3c(c1)OCO3)OCO2 [sesamin]
Percentage (%) HA Reduction ([1]; sesamin 0.25 uM (88.6 ug/ml)): approximately 0%
Percentage (%) HA Reduction ([1]; sesamin 0.25 uM (88.6 ug/ml), listed as Sesamin): 0%
Percentage (%) HA Reduction ([1]; sesamin 0.50 uM (177.2 ug/ml)): approximately 4%
Percentage (%) HA Reduction ([1]; sesamin 0.50 uM (177.2 ug/ml), listed as Sesamin): 4%
Percentage (%) HA Reduction ([1]; sesamin 1.00 uM): approximately 43%
Percentage (%) HA Reduction ([1]; sesamin 1.00 uM, listed as Sesamin): 56%
quantity of IL-1 released ([2]; 0.5 ug/ml sesamin (culture 4)): approximately 4 pg/ml
percentage of quantity of human IL-1 released relative to quantity of isolated egg cells (diluted 1:50) ([2]; 0.5 ug/ml sesamin): approximately 22%
quantity of IL-1 released ([2]; 1.0 ug/ml sesamin (culture 5)): approximately 3.5 pg/ml
percentage of quantity of human IL-1 released relative to quantity of isolated egg cells (diluted 1:50) ([2]; 1.0 ug/ml sesamin): approximately 18%
quantity of IL-1 released ([2]; 10.0 ug/ml sesamin (culture 6)): approximately 3 pg/ml
percentage of quantity of human IL-1 released relative to quantity of isolated egg cells (diluted 1:50) ([2]; 10.0 ug/ml sesamin): approximately 16%
